The text below walks through data of US8344135B2, “Heterocyclic compound and use thereof” (Takeda Pharmaceutical Company Limited, priority 2007, dated 2013).

Test [1] deals with MEK1/2 phosphorylation (Ser217/221) in HT-29 cells. Description: Colon cancer cell HT-29 intracellular MEK phosphorylation inhibitory action in vitro. Format: cell-based. The settings on record: Homo sapiens, 2 hr treatment, Western blot of phosphorylated MEK1/2. The protocol: Colon Cancer Cell HT-29 Intracellular MEK Phosphorylation Inhibitory Action in vitro
A cell suspension (500 μL) of human colon cancer cell HT-29 was plated in a 48-well plate (100,000 cells/well), and the cells were cultured overnight at 37° C. in the presence of 5% CO2, treated with a test compound (250 μL/well) diluted in 3-fold dilution series and cultured for two more hours. After 2 hr, the culture medium containing the test compound was removed, and the cells were lysed with SDS sample buffer (100 μL/well) and heated at 95° C. for 5 min. Thereafter, the cells were applied to SDS-PAGE, and the protein was transferred onto Sequi-Blot™ PVDF Membrane (Bio-Rad) by the Western blot method. The cells were blocked with a block-Ace solution (Snow Brand Milk Products Co., Ltd) dissolved in phosphate buffer to 5% W/V, and reacted overnight with anti-phosphorylated MEK1/2 (Ser217/221) (Cell signaling #9121) diluted 1000-fold with phosphate buffer containing 0.4% block-Ace. The membrane was washed with phosphate buffer containing 0.1% Tween 20 (Wako Pure Chemical Industries, Ltd.), and reacted at room temperature for 1 hr with HRP labeled rabbit IgG polyclonal antibody (Cell signaling #7074) diluted 1000-fold with phosphate buffer containing 0.4% block-Ace. The membrane was washed in the same manner as above, chemical luminescence of a phosphorylated MEK1/2 protein labeled with the antibody, which was caused by ECL-plus Detection Reagent (Amersham bioscience), was detected by Luminescent Image Analyzer LAS-1000 (FUJIFILM Corporation).

A further test addresses T1, BRAF (V600E) (Homo sapiens, UniProt P15056, V600E).
T1 construct: area encoding the BRAF kinase domain region, so that the protein contains an N-terminal Flag; made in house; host or cells: SF-21 insect cells infected with recombinant baculovirus BAC-V600E
The test is described as follows: Determination of BRAF (V600E) kinase inhibitory activity. Format: biochemical. The settings on record: test compound 1.0 μM; substrate GST-MEK1 (K96R); [γ-32P]ATP; read-out: Inhibitory rate (%) at 1.0 μM. How it is done:
Determination of BRAF (V600E) Kinase Inhibitory Activity
A test compound (2.5 μL) dissolved in dimethyl sulfoxide (DMSO) was added to 37.5 μL of a reaction solution (25 mM HEPES (pH 7.5), 10 mM magnesium acetate, 1 mM dithiothreitol) containing BRAF (V600E) enzyme (30 ng) and recombinant type protein GST-MEK1 (K96R) 250 ng, and the mixture was incubated at room temperature for 10 min. ATP solution (10 μL, 2.5 μM ATP, 0.1 μCi [γ-^32P]ATP) was added to the obtained mixture, and the mixture was reacted at room temperature for 20 min. The reaction was quenched by adding 50 μL of ice-cooled 20% trichloroacetic acid (Wako Pure Chemical Industries, Ltd.). The reaction solution was allowed to stand at 4° C. for 30 min, and the acid-precipitable fraction was transferred to GF/C filter plate (Millipore Corporation) using cell harvester (PerkinElmer). The plate was dried at 45° C. for 60 min, and 40 μL of MicroScinti 0 (PerkinElmer) was added thereto. The radioactivity was measured using TopCount (PerkinElmer). The kinase inhibitory rate (%) of the test compound was calculated by the following formula: Inhibitory rate (%)=(1−(count of test compound−blank)÷(control−blank))×100
The count of the solution reacted without addition of the compound was used as a “control”, and the count of the solution without the compound and enzyme was used as a “blank”.

T1 sequence (P15056 457-717 V600E limits assumed): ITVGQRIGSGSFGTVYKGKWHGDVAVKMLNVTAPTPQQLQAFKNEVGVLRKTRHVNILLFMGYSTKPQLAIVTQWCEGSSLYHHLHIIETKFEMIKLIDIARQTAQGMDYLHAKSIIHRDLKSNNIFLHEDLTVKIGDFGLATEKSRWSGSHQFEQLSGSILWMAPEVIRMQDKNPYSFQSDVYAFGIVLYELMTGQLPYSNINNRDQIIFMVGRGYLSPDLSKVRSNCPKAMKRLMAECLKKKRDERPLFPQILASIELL

One may read the IC50 as the concentration at which inhibition is half-maximal. A low value points to greater potency. In the case of `CN1CCN(CC(=O)Nc2nc3ccc(Oc4cc(NC(=O)c5cccc(C(C)(C)C#N)c5)ccc4Cl)nc3s2)CC1` [Example C51], in test [1], the IC50 is less than 500 nM.

For `CN(c1cccc(NC(=O)c2cccc(C(F)(F)F)c2)c1)c1ccc2nc(NC(=O)C3CC3)sc2n1` [Example C40, N-{3-[{2-[(cyclopropylcarbonyl)amino][1,3]thiazolo[5,4-b]pyridin-5-yl}(methyl)amino]phenyl}-3-(trifluoromethyl)benzamide], the IC50 in test [1] was less than 500 nM.

`CC(=O)Nc1nc2ccc(Oc3ccc(F)c(NC(=O)c4cccc(C5(C#N)CC5)c4Cl)c3)nc2s1` [Example C65, N-(5-{[2-(acetylamino)[1,3]thiazolo[5,4-b]pyridin-5-yl]oxy}-2-fluorophenyl)-2-chloro-3-(1-cyanocyclopropyl)benzamide] displayed a 50% inhibitory concentration (IC50) in test [1] of less than 500 nM.

In test [1], `N#CC1(c2cccc(C(=O)Nc3cccc(Oc4ccc5nc(NC(=O)C6CC6)sc5n4)c3)c2)CC1` [Example C26, 3-(1-cyanocyclopropyl)-N-[3-({2-[(cyclopropylcarbonyl)amino][1,3]thiazolo[5,4-b]pyridin-5-yl}oxy)phenyl]benzamide] came in with an IC50 of less than 500 nM.

`Cc1ccc(NC(=O)c2cccc(C(C)(C)C#N)c2)cc1Oc1ccc2nc(NC(=O)/C=C/c3ccc(Cl)cc3)sc2n1` [Example C99, N-{3-[(2-{[(2E)-3-(4-chlorophenyl)prop-2-enoyl]amino}[1,3]thiazolo[5,4-b]pyridin-5-yl)oxy]-4-methylphenyl}-3-(1-cyano-1-methylethyl)benzamide] yielded an IC50 in test [1] of less than 500 nM.

In turn, `CN(c1cccc(NC(=O)c2cccc(C(F)(F)F)c2)c1)c1ncc2nc(NC(=O)C3CC3)sc2n1` [Example D2, N-{3-[{2-[(cyclopropylcarbonyl)amino][1,3]thiazolo[5,4-d]pyrimidin-5-yl}(methyl)amino]phenyl}-3-(trifluoromethyl)benzamide] yielded a concentration for half-maximal inhibition (IC50) in test [1] of less than 500 nM.

In test [1], `Cc1ccc(NC(=O)c2cccc(C(F)(F)F)c2)cc1Oc1ccc2nc(NC(=O)CO)sc2n1` [Example C9, N-(3-{[2-(glycoloylamino)[1,3]thiazolo[5,4-b]pyridin-5-yl]oxy}-4-methylphenyl)-3-(trifluoromethyl)benzamide] returned an IC50 of less than 500 nM.

In test [1], `Cc1ccc(NC(=O)c2cccc(C3(C#N)CC3)c2)cc1Oc1ccc2nc(NC(=O)C3CC3)sc2n1` [Example C16, 3-(1-cyanocyclopropyl)-N-[3-({2-[(cyclopropylcarbonyl)amino][1,3]thiazolo[5,4-b]pyridin-5-yl}oxy)-4-methylphenyl]benzamide] had an IC50 of less than 500 nM.

For the compound `Cc1ccc(NC(=O)c2cccc(C(F)(F)F)c2)cc1Oc1ccc2nc(NC(=O)C3CC3)sc2n1` [Example C8, N-[3-({2-[(cyclopropylcarbonyl)amino][1,3]thiazolo[5,4-b]pyridin-5-yl}oxy)-4-methylphenyl]-3-(trifluoromethyl)benzamide], on BRAF (V600E), the inhibition at 1 µM was determined as 99%.

With `Cc1ccc(Oc2ccc3nc(NC(=O)CO)sc3n2)cc1NC(=O)c1cccc(C(C)(C)C#N)c1` [Example C36, 3-(1-cyano-1-methylethyl)-N-(5-{[2-(glycoloylamino)[1,3]thiazolo[5,4-b]pyridin-5-yl]oxy}-2-methylphenyl)benzamide], on BRAF (V600E), the inhibition at 1 µM is 100%.

The compound `Cc1ccc(Oc2ccc3nc(NC(=O)CN4CCN(C)CC4)sc3n2)cc1NC(=O)c1cccc(C(C)(C)C#N)c1` [Example C35, 3-(1-cyano-1-methylethyl)-N-{2-methyl-5-[(2-{[(4-methylpiperazin-1-yl)acetyl]amino}[1,3]thiazolo[5,4-b]pyridin-5-yl)oxy]phenyl}benzamide] displayed an IC50 in test [1] of less than 500 nM.

As for `CC(C)(C#N)c1cccc(C(=O)Nc2cc(Oc3ccc4nc(NC(=O)C5CC5)sc4n3)ccc2F)c1Cl` [Example C63, 2-chloro-3-(1-cyano-1-methylethyl)-N-[5-({2-[(cyclopropylcarbonyl)amino][1,3]thiazolo[5,4-b]pyridin-5-yl}oxy)-2-fluorophenyl]benzamide], on BRAF (V600E), the inhibition at 1 µM is 101%.

With `COc1ccc(NC(=O)c2cccc(C3(C#N)CC3)c2)cc1Oc1ccc2nc(NC(=O)C3CC3)sc2n1` [Example C1, 3-(1-cyanocyclopropyl)-N-[3-({2-[(cyclopropylcarbonyl)amino][1,3]thiazolo[5,4-b]pyridin-5-yl}oxy)-4-methoxyphenyl]benzamide], at BRAF (V600E), the inhibition at 1 µM came out at 100%.

In test [1], `COc1ccc(NC(=O)c2cccc(C3(C#N)CC3)c2)cc1Oc1ccc2nc(NC(=O)CN3CCN(C)CC3)sc2n1` [Example C2, 3-(1-cyanocyclopropyl)-N-{4-methoxy-3-[(2-{[(4-methylpiperazin-1-yl)acetyl]amino}[1,3]thiazolo[5,4-b]pyridin-5-yl)oxy]phenyl}benzamide] had an IC50 of less than 500 nM.

For `CC(=O)Nc1nc2cnc(N(C)c3cccc(NC(=O)c4cccc(C(F)(F)F)c4)c3)nc2s1` [Example D1, N-{3-[[2-(acetylamino)[1,3]thiazolo[5,4-d]pyrimidin-5-yl](methyl)amino]phenyl}-3-(trifluoromethyl)benzamide], the inhibition at 1 µM on BRAF (V600E) turned out to be 98%.

Consider `Cc1ccc(NC(=O)c2cccc(C(F)(F)F)c2)cc1Oc1ccc2nc(NC(=O)CN3CCN(C)CC3)sc2n1` [Example C11, N-{4-methyl-3-[(2-{[(4-methylpiperazin-1-yl)acetyl]amino}[1,3]thiazolo[5,4-b]pyridin-5-yl)oxy]phenyl}-3-(trifluoromethyl)benzamide], for which, in test [1], the IC50 is less than 500 nM.

As to `Cc1ccc(NC(=O)c2cccc(C(C)(C)C#N)c2)cc1Oc1ccc2nc(NC(=O)CO)sc2n1` [Example C13, 3-(1-cyano-1-methylethyl)-N-(3-{[2-(glycoloylamino)[1,3]thiazolo[5,4-b]pyridin-5-yl]oxy}-4-methylphenyl)benzamide], the concentration for half-maximal inhibition (IC50) in test [1] was less than 500 nM.
